Results from ChEMBL document CHEMBL1201862, “PubChem BioAssay data set” (2004).
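The compound was tested at five concentrations on cells cultured in 96-well plates, with a 48-hour exposure period. Abbreviation: GI50, concentration required for 50% inhibition of growth.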 Calls of active or inactive are those of the source. No stated cut-off is given here; in the data, active = GI50 up to about 1.1 µM and inactive = higher.

Legend:
Experiment in all cases: NCI tumour cell line growth inhibition, 48 h
UACC-257 = system: UACC-257
SK-OV-3 = system: SK-OV-3
SR = system: SR
U-251 = system: U-251
SF-268 = system: SF-268
RPMI-8226 = system: RPMI-8226
IGROV-1 = system: IGROV-1
KM12 = system: KM12
TK-10 = system: TK-10
SK-MEL-5 = system: SK-MEL-5
SNB-78 = system: SNB-78
EKVX = system: EKVX
OVCAR-4 = system: OVCAR-4
OVCAR-5 = system: OVCAR-5
NCI-H226 = system: NCI-H226
NCI-H522 = system: NCI-H522
MCF7 = system: MCF7
T47D = system: T47D
DU-145 = system: DU-145
MDA-MB-435 = system: MDA-MB-435

| Structure (SMILES) | GI50 (UACC-257) | GI50 (SK-OV-3) | GI50 (SR) | GI50 (U-251) | GI50 (SF-268) | GI50 (RPMI-8226) | GI50 (IGROV-1) | GI50 (KM12) | GI50 (TK-10) | GI50 (SK-MEL-5) | GI50 (SNB-78) | GI50 (EKVX) | GI50 (OVCAR-4) | GI50 (OVCAR-5) | GI50 (NCI-H226) | GI50 (NCI-H522) | GI50 (MCF7) | GI50 (T47D) | GI50 (DU-145) | GI50 (MDA-MB-435) |
| --- | --- | --- | --- | --- | --- | --- | --- | --- | --- | --- | --- | --- | --- | --- | --- | --- | --- | --- | --- | --- |
| Nc1ccc(C(c2ccccc2)(c2ccccc2)c2ccccc2)cc1 | 34.3 µM (inactive) | 17.6 µM (inactive) | 36.6 µM (inactive) | 29.7 µM (inactive) | 99.3 µM (inactive) | 39 µM (inactive) | 52.1 µM (inactive) | 55.6 µM (inactive) | 20.2 µM (inactive) | 42.2 µM (inactive) | 34.4 µM (inactive) | 27.2 µM (inactive) | 24.7 µM (inactive) |  |  |  |  |  |  |  |
| CCOC(=O)c1nn2c(nc1=O)sc1ccc3ccccc3c12 | > 100 µM (inactive) | > 100 µM (inactive) | > 100 µM (inactive) | > 100 µM (inactive) | > 100 µM (inactive) | > 100 µM (inactive) | > 100 µM (inactive) | > 100 µM (inactive) | > 100 µM (inactive) | > 100 µM (inactive) | > 100 µM (inactive) | > 100 µM (inactive) | > 100 µM (inactive) | > 100 µM (inactive) | > 100 µM (inactive) |  |  |  |  |  |
| Cc1cccc(C(C)(C)C)c1NC(=O)CC1C(=O)Nc2ccccc2S1(=O)=O (stereo unspecified) | 27.6 µM (inactive) |  | 3.21 µM (inactive) | 8.28 µM (inactive) | 11.2 µM (inactive) | 3.24 µM (inactive) | 9.33 µM (inactive) |  | 20.5 µM (inactive) | 12.1 µM (inactive) | 8.24 µM (inactive) | 2.87 µM (inactive) | 11.4 µM (inactive) | 13 µM (inactive) | 16.7 µM (inactive) |  |  |  |  |  |
| C/C(O)=C1\CC2CN3CCc4c([nH]c5ccccc45)C3CC2CC1=O (stereo unspecified) | > 100 µM (inactive) | 24.8 µM (inactive) | 23.4 µM (inactive) | > 100 µM (inactive) | 54.6 µM (inactive) |  | > 100 µM (inactive) | > 100 µM (inactive) | > 100 µM (inactive) | 55.2 µM (inactive) | 32.9 µM (inactive) | 37 µM (inactive) | 46 µM (inactive) | 70 µM (inactive) | 54.1 µM (inactive) | 65.6 µM (inactive) |  |  |  |  |
| O=C(NC(=O)c1cc2cc(Br)cc(Br)c2oc1=O)Oc1ccccc1 | 59.2 µM (inactive) | 37 µM (inactive) |  | 28.2 µM (inactive) | > 100 µM (inactive) | > 100 µM (inactive) | 50.7 µM (inactive) | 93.8 µM (inactive) | 47.9 µM (inactive) | > 100 µM (inactive) | > 100 µM (inactive) | > 100 µM (inactive) | > 100 µM (inactive) | > 100 µM (inactive) | 78.2 µM (inactive) |  |  |  |  |  |
| COC(=O)[C@H]1COC(=S)N1C(=O)[C@@H](C)[C@H](O)C(C)C | > 100 µM (inactive) | > 100 µM (inactive) | > 100 µM (inactive) | > 100 µM (inactive) | > 100 µM (inactive) | > 100 µM (inactive) | > 100 µM (inactive) | > 100 µM (inactive) | > 100 µM (inactive) | > 100 µM (inactive) | > 100 µM (inactive) | > 100 µM (inactive) | > 100 µM (inactive) | > 100 µM (inactive) | 12.8 µM (inactive) |  |  |  |  |  |
| COc1ccc(OC)c(CCc2cc(OC)c(OC)cc2C)c1 | 26.7 µM (inactive) | 23 µM (inactive) |  | 43.4 µM (inactive) | 42 µM (inactive) | 14.4 µM (inactive) | 8.47 µM (inactive) | 0.63 µM (active) | 89.7 µM (inactive) | 1.62 µM (inactive) | 7.52 µM (inactive) | 84.9 µM (inactive) | 8.2 µM (inactive) | > 100 µM (inactive) |  | 3.65 µM (inactive) |  |  |  |  |
| COc1cc(N(Cc2ccc3oc(=O)c(-c4ccccc4)nc3c2)Cc2ccc3oc(=O)c(-c4ccccc4)nc3c2)cc(OC)c1OC | > 10 µM (inactive) | > 10 µM (inactive) | > 10 µM (inactive) | > 10 µM (inactive) | > 10 µM (inactive) | > 10 µM (inactive) | > 10 µM (inactive) | > 10 µM (inactive) | > 10 µM (inactive) | > 10 µM (inactive) |  | > 10 µM (inactive) | > 10 µM (inactive) | > 10 µM (inactive) | > 10 µM (inactive) | > 10 µM (inactive) | > 10 µM (inactive) | > 10 µM (inactive) | > 10 µM (inactive) | > 10 µM (inactive) |
| COC(=O)/C=C(\CC(=O)OC)n1nnnc1[C@@H]1C[C@H](COC(c2ccccc2)(c2ccccc2)c2ccccc2)[C@H]2OC(C)(C)O[C@H]21 | > 100 µM (inactive) | > 100 µM (inactive) | 92 µM (inactive) | > 100 µM (inactive) | > 100 µM (inactive) | 11.1 µM (inactive) | 60.5 µM (inactive) | > 100 µM (inactive) | > 100 µM (inactive) | 76.7 µM (inactive) |  | 54.2 µM (inactive) | > 100 µM (inactive) | > 100 µM (inactive) | > 100 µM (inactive) | 51.6 µM (inactive) | 31.9 µM (inactive) | 20.8 µM (inactive) | > 100 µM (inactive) | > 100 µM (inactive) |
| C=CCN1C(=O)/C(=C/c2ccc(OC)cc2)N=C1SC/C=C/C | 36.7 µM (inactive) | > 100 µM (inactive) | 17.3 µM (inactive) | 35.1 µM (inactive) | 53.8 µM (inactive) | 26.2 µM (inactive) | > 100 µM (inactive) | 28.8 µM (inactive) | > 100 µM (inactive) | 18.3 µM (inactive) |  | 33.5 µM (inactive) | 37.7 µM (inactive) | > 100 µM (inactive) | 53.7 µM (inactive) | 28.1 µM (inactive) | 32.1 µM (inactive) | 12.6 µM (inactive) | 80 µM (inactive) | 33.3 µM (inactive) |
| COc1ccc(/N=N/C(=N\c2ccccc2)c2ccc(N(CCC#N)CCC#N)cc2)cc1 | 23.8 µM (inactive) | > 100 µM (inactive) | 25.9 µM (inactive) | 31.4 µM (inactive) | 97.7 µM (inactive) | 41 µM (inactive) | 23.4 µM (inactive) | 26 µM (inactive) | 61.1 µM (inactive) | 47.1 µM (inactive) |  | 27.4 µM (inactive) | 45.3 µM (inactive) | > 100 µM (inactive) | > 100 µM (inactive) | 22.7 µM (inactive) | 22.5 µM (inactive) | 33.5 µM (inactive) | 76.9 µM (inactive) | 56.4 µM (inactive) |
| C[C@]12CCc3nonc3C1CC[C@@H]1C2CC[C@]2(C)NC(=O)CCC12 (stereo partly specified) | > 100 µM (inactive) | > 100 µM (inactive) |  | > 100 µM (inactive) | > 100 µM (inactive) | > 100 µM (inactive) | > 100 µM (inactive) | > 100 µM (inactive) | > 100 µM (inactive) | > 100 µM (inactive) | > 100 µM (inactive) | > 100 µM (inactive) | > 100 µM (inactive) | > 100 µM (inactive) | > 100 µM (inactive) | > 100 µM (inactive) |  |  |  |  |
| S=C(N/N=C(/c1ccccc1)c1ccccn1)Nc1ccccc1Cl | < 0.01 µM (active) | 0.0266 µM (active) | < 0.0189 µM (active) | 0.0158 µM (active) | 0.179 µM (active) | < 0.0448 µM (active) | < 0.0105 µM (active) | 0.0649 µM (active) | 0.336 µM (active) | 0.121 µM (active) |  | 0.0785 µM (active) | 0.879 µM (active) | 0.0243 µM (active) | 0.0993 µM (active) | < 0.0446 µM (active) | < 0.01 µM (active) | < 0.01 µM (active) | 2.31 µM (inactive) | 0.265 µM (active) |
| CN(C)CCCn1cnc2cc(Cl)c(Cl)cc21 | 19.8 µM (inactive) | > 100 µM (inactive) | 93.5 µM (inactive) | > 100 µM (inactive) | > 100 µM (inactive) | 38.4 µM (inactive) | 56.4 µM (inactive) | > 100 µM (inactive) | 42.7 µM (inactive) | 53.1 µM (inactive) |  | > 100 µM (inactive) | > 100 µM (inactive) | > 100 µM (inactive) | > 100 µM (inactive) | > 100 µM (inactive) | > 100 µM (inactive) | 59.7 µM (inactive) | > 100 µM (inactive) | 55.8 µM (inactive) |
| COC(=O)CN(CC1O[C@@H]2OC(C)(C)O[C@@H]2C1NC(C)=O)C(=O)OCc1ccccc1 (stereo partly specified) | > 100 µM (inactive) | > 100 µM (inactive) | > 100 µM (inactive) | > 100 µM (inactive) | > 100 µM (inactive) | > 100 µM (inactive) | > 100 µM (inactive) | > 100 µM (inactive) | > 100 µM (inactive) | > 100 µM (inactive) |  | > 100 µM (inactive) | > 100 µM (inactive) | > 100 µM (inactive) | > 100 µM (inactive) | > 100 µM (inactive) | > 100 µM (inactive) | > 100 µM (inactive) | > 100 µM (inactive) | > 100 µM (inactive) |
| C(=C\Nc1ccc(-c2ccccc2)cc1)/C=N/c1ccc(-c2ccccc2)cc1 | > 100 µM (inactive) | > 100 µM (inactive) | > 100 µM (inactive) | > 100 µM (inactive) | > 100 µM (inactive) | > 100 µM (inactive) | > 100 µM (inactive) | > 100 µM (inactive) | 54.3 µM (inactive) | > 100 µM (inactive) |  | > 100 µM (inactive) | > 100 µM (inactive) | > 100 µM (inactive) | > 100 µM (inactive) | > 100 µM (inactive) | > 100 µM (inactive) | > 100 µM (inactive) | > 100 µM (inactive) | > 100 µM (inactive) |
